Results as given in patent US8114885B2, “Chemical compounds” (GlaxoSmithKline LLC, priority 2000, dated 2012).
Structures can show the parent of a compound that is named as a salt.

Each molecule was assayed on HUVEC (assay: Human Umbilical Vein Endothelial Cell (HUVEC) proliferation assay (BrdU incorporation)). Details: VEGF-stimulated HUVEC, 72 hrs, read-out: Inhibition of HUVEC proliferation IC50.
Format: cell-based
Experimental: Human Umbilical Vein Endothelial Cell (HUVEC) Proliferation Assay (BrdU Incorporation) Materials
HUVEC cells and EGM-MV (Endothelial cell growth medium—microvascular) were purchased from Clonetics (San Diego, Calif.). VEGF and bFGF were purchased from R&D Systems (Minneapolis, Minn.). Anti-BrdU antibody was obtained from Chemicon International (Temecula, Calif.).
HUVECs were routinely maintained in EGM-MV medium and were used within passage 7. HUVECs were plated at a density of 2500 cells/well in M199 medium containing 5% FBS (Hyclone) in type I collagen coated plate (Becton Dickinson). The plate was incubated at 37° C. overnight. The medium was removed by aspiration, and test compounds were added to each well in a volume of 0.1 ml/well in serum-free M199 medium. Compound concentrations ranged from 1.5 nM to 30 micromolar. The plate was incubated for 30 min at 37° C. Another 0.1 ml of serum-free M199 medium containing BSA and VEGF (or bFGF) was added to give a final concentration of 0.1% BSA and 10 ng/ml VEGF (0.3 ng/ml bFGF). The plate was incubated at 37° C. for 72 hrs. BrdU was added to each well after the first 48 hrs to give a concentration of 10 micromolar. The calorimetric ELISA assay was performed according to manufacturer's (Roche Molecular Sciences) instructions, with detection by absorbance reading at 450 nm. Results were plotted as concentration of test compound vs. absorbance to give an IC50 value for inhibition of BrdU incorporation.

First: CCS(=O)(=O)c1ccc(OC)c(Nc2ncc(F)c(N(C)c3ccc4c(C)n[nH]c4c3)n2)c1 [Example 1, N^2-[5-(ethylsulfonyl)-2-methoxyphenyl]-5-fluoro-N^4-methyl-N^4-(3-methyl-1H-indazol-6-yl)-2,4-pyrimidinediamine]
Second: CNS(=O)(=O)c1ccc(OC)c(Nc2ncc(F)c(N(C)c3ccc4c(C)n[nH]c4c3)n2)c1 [Example 2, 3-({5-fluoro-4-[methyl(3-methyl-1H-indazol-6-yl)amino]-2-pyrimidinyl}amino)-4-methoxy-N-methylbenzenesulfonamide]
The IC50 of the first is higher: 201 to 500 nM for the first, 1 to 200 nM for the second. The second is the more potent here.

`Cc1n[nH]c2cc(N(C)c3nc(Nc4cccc(CS(C)(=O)=O)c4)ncc3F)ccc12` [Example 3, 5-fluoro-N^4-methyl-N^4-(3-methyl-1H-indazol-6-yl)-N^2-{3-[(methylsulfonyl)methyl]phenyl}-2,4-pyrimidinediamine] and `Cc1n[nH]c2cc(N(C)c3nc(Nc4cccc(CS(=O)(=O)C(C)C)c4)ncc3F)ccc12` [Example 12, 5-fluoro-N^2-{3-[(isopropylsulfonyl)methyl]phenyl}-N^4-methyl-N^4-(3-methyl-1H-indazol-6-yl)-2,4-pyrimidinediamine] fall in the same range of IC50: 1 to 200 nM for the first, 1 to 200 nM for the second.

`COc1ccc(S(=O)(=O)NC(C)C)cc1Nc1ncc(F)c(N(C)c2ccc3c(C)n[nH]c3c2)n1` [Example 4, 3-({5-fluoro-4-[methyl(3-methyl-1H-indazol-6-yl)amino]-2-pyrimidinyl}amino)-N-isopropyl-4-methoxybenzenesulfonamide] and `COc1ccc(S(=O)(=O)C(C)C)cc1Nc1ncc(F)c(N(C)c2ccc3c(C)n[nH]c3c2)n1` [Example 5, 5-fluoro-N^2-[5-(isopropylsulfonyl)-2-methoxyphenyl]-N^4-methyl-N^4-(3-methyl-1H-indazol-6-yl)-2,4-pyrimidinediamine] fall in the same range of IC50: 201 to 500 nM for the first, 201 to 500 nM for the second.

Compared with `Cc1ccc(Nc2ncc(F)c(N(C)c3ccc4c(C)n[nH]c4c3)n2)cc1NS(C)(=O)=O` [Example 6, N-[5-({5-fluoro-4-[methyl(3-methyl-1H-indazol-6-yl)amino]-2-pyrimidinyl}amino)-2-methylphenyl]methanesulfonamide], `Cc1ccc(Nc2ncnc(N(C)c3ccc4c(C)n[nH]c4c3)n2)cc1NS(C)(=O)=O` [Example 18, N-[2-methyl-5-({4-[methyl(3-methyl-1H-indazol-6-yl)amino]-1,3,5-triazin-2-yl}amino)phenyl]methanesulfonamide] is higher in IC50: 201 to 500 nM for the first, 501 to 1000 nM for the second. The first is the more potent here.

`Cc1n[nH]c2cc(N(C)c3nc(Nc4ccc(S(C)(=O)=O)cc4)ncc3F)ccc12` [Example 7, 5-fluoro-N^4-methyl-N^4-(3-methyl-1H-indazol-6-yl)-N^2-[4-(methylsulfonyl)phenyl]-2,4-pyrimidinediamine] and `Cc1n[nH]c2cc(N(C)c3nc(Nc4ccc(S(N)(=O)=O)cc4)ncc3F)ccc12` [Example 9, 4-({5-fluoro-4-[methyl(3-methyl-1H-indazol-6-yl)amino]-2-pyrimidinyl}amino)benzenesulfonamide] fall in the same range of IC50: 201 to 500 nM for the first, 201 to 500 nM for the second.

`CCc1n[nH]c2cc(N(C)c3nc(Nc4cccc(CS(C)(=O)=O)c4)ncc3F)ccc12` [Example 8, N^4-(3-ethyl-1H-indazol-6-yl)-5-fluoro-N^4-methyl-N^2-{3-[(methylsulfonyl)methyl]phenyl}-2,4-pyrimidinediamine] and `Cc1n[nH]c2cc(N(C)c3ncnc(Nc4cccc(CS(C)(=O)=O)c4)n3)ccc12` [Example 16, N^2-methyl-N^2-(3-methyl-1H-indazol-6-yl)-N^4-{3-[(methylsulfonyl)methyl]phenyl}-1,3,5-triazine-2,4-diamine hydrochloride] fall in the same range of IC50: 201 to 500 nM for the first, 201 to 500 nM for the second.

First: CCN(c1ccc2c(C)n[nH]c2c1)c1nc(Nc2cc(S(C)(=O)=O)ccc2OC)ncc1F [Example 10, N^4-ethyl-5-fluoro-N^2-[2-methoxy-5-(methylsulfonyl)phenyl]-N^4-(3-methyl-1H-indazol-6-yl)-2,4-pyrimidinediamine]
Second: COc1cc(S(N)(=O)=O)ccc1Nc1ncc(F)c(N(C)c2ccc3c(C)n[nH]c3c2)n1 [Example 14, 4-({5-fluoro-4-[methyl(3-methyl-1H-indazol-6-yl)amino]-2-pyrimidinyl}amino)-3-methoxybenzenesulfonamide]
The IC50 of the first is higher: greater than 1000 nM for the first, 1 to 200 nM for the second. The second is the more potent here.

First: CNS(=O)(=O)Cc1ccc(Nc2ncc(F)c(N(C)c3ccc4c(C)n[nH]c4c3)n2)cc1 [Example 11, [4-({5-fluoro-4-[methyl(3-methyl-1H-indazol-6-yl)amino]-2-pyrimidinyl}amino)phenyl]-N-methylmethanesulfonamide]
Second: Cc1n[nH]c2cc(N(C)c3ccnc(Nc4ccc(CS(=O)(=O)C(C)C)cc4)n3)ccc12 [Example 29, N^2-{4-[(isopropylsulfonyl)methyl]phenyl}-N^4-methyl-N^4-(3-methyl-1H-indazol-6-yl)-2,4-pyrimidinediamine]
The IC50 of the first is higher: 201 to 500 nM for the first, 1 to 200 nM for the second. The second is the more potent here.

First: COc1ccc(C(N)=O)cc1Nc1ncc(F)c(N(C)c2ccc3c(C)n[nH]c3c2)n1 [Example 13, 3-({5-fluoro-4-[methyl(3-methyl-1H-indazol-6-yl)amino]-2-pyrimidinyl}amino)-4-methoxybenzamide]
Second: CCS(=O)(=O)c1ccc(OC)c(Nc2ncnc(N(C)c3ccc4c(C)n[nH]c4c3)n2)c1 [Example 17, N^2-[5-(ethylsulfonyl)-2-methoxyphenyl]-N^4-methyl-N^4-(3-methyl-1H-indazol-6-yl)-1,3,5-triazine-2,4-diamine hydrochloride]
The IC50 of the first is lower: 201 to 500 nM for the first, 501 to 1000 nM for the second.

First: Cc1n[nH]c2cc(Nc3ncnc(Nc4cccc(CS(C)(=O)=O)c4)n3)ccc12 [Example 15, N^2-(3-methyl-1H-indazol-6-yl)-N^4-{3-[(methylsulfonyl)methyl]phenyl}-1,3,5-triazine-2,4-diamine trifluoroacetate]
Second: Cc1n[nH]c2cc(N(C)c3ccnc(Nc4cccc(CS(C)(=O)=O)c4)n3)ccc12 [Example 23, N^4-methyl-N^4-(3-methyl-1H-indazol-6-yl)-N^2-{3-[(methylsulfonyl)methyl]phenyl}-2,4-pyrimidinediamine]
The IC50 of the first is higher: 501 to 1000 nM for the first, 1 to 200 nM for the second.

First: Cc1n[nH]c2cc(N(C)c3ncnc(Nc4cccc(S(C)(=O)=O)c4)n3)ccc12 [Example 19, N^2-methyl-N^2-(3-methyl-1H-indazol-6-yl)-N^4-[3-(methylsulfonyl)phenyl]-1,3,5-triazine-2,4-diamine]
Second: Cc1n[nH]c2cc(N(C)c3ccnc(Nc4cccc(S(N)(=O)=O)c4)n3)ccc12 [Example 21, 3-({4-[methyl(3-methyl-1H-indazol-6-yl)amino]-2-pyrimidinyl}amino)benzenesulfonamide hydrochloride]
The IC50 of the first is higher: 201 to 500 nM for the first, 1 to 200 nM for the second.

First: CC(=O)Nc1ccc(Nc2ncnc(N(C)c3ccc4c(C)n[nH]c4c3)n2)cc1 [Example 20, N-[4-({4-[methyl(3-methyl-1H-indazol-6-yl)amino]-1,3,5-triazin-2-yl}amino)phenyl]acetamide hydrochloride]
Second: CC(=O)Nc1cccc(Nc2nccc(N(C)c3ccc4c(C)n[nH]c4c3)n2)c1 [Example 31, N-[3-({4-[methyl(3-methyl-1H-indazol-6-yl)amino]-2-pyrimidinyl}amino)phenyl]acetamide]
The IC50 of the first is higher: greater than 1000 nM for the first, 1 to 200 nM for the second. The second is the more potent here.

First: CCS(=O)(=O)c1ccc(OC)c(Nc2nccc(N(C)c3ccc4c(C)n[nH]c4c3)n2)c1 [Example 22, N^2-[5-(ethylsulfonyl)-2-methoxyphenyl]-N^4-methyl-N^4-(3-methyl-1H-indazol-6-yl)-2,4-pyrimidinediamine]
Second: CCN(c1ccc2c(C)n[nH]c2c1)c1ccnc(Nc2cc(S(=O)(=O)CC)ccc2OC)n1 [Example 26, N^4-ethyl-N^2-[5-(ethylsulfonyl)-2-methoxyphenyl]-N^4-(3-methyl-1H-indazol-6-yl)-2,4-pyrimidinediamine]
The IC50 of the first is lower: 1 to 200 nM for the first, 201 to 500 nM for the second.

`Cc1n[nH]c2cc(N(C)c3ccnc(Nc4cccc(S(=O)(=O)NC(C)C)c4)n3)ccc12` [Example 24, N-isopropyl-3-({4-[methyl(3-methyl-1H-indazol-6-yl)amino]-2-pyrimidinyl}amino)benzenesulfonamide] and `Cc1n[nH]c2cc(N(C)c3ccnc(Nc4cccc(S(=O)(=O)NC5CC5)c4)n3)ccc12` [Example 25, N-cyclopropyl-3-({4-[methyl(3-methyl-1H-indazol-6-yl)amino]-2-pyrimidinyl}amino)benzenesulfonamide] fall in the same range of IC50: 1 to 200 nM for the first, 1 to 200 nM for the second.

`Cc1n[nH]c2cc(N(C)c3ccnc(Nc4cccc(NS(C)(=O)=O)c4)n3)ccc12` [Example 27, N-[3-({4-[methyl(3-methyl-1H-indazol-6-yl)amino]-2-pyrimidinyl}amino)phenyl]methanesulfonamide] and `Cc1n[nH]c2cc(N(C)c3ccnc(Nc4cccc(CS(=O)(=O)C(C)C)c4)n3)ccc12` [Example 28, N^2-{3-[(isopropylsulfonyl)methyl]phenyl}-N^4-methyl-N^4-(3-methyl-1H-indazol-6-yl)-2,4-pyrimidinediamine] fall in the same range of IC50: 1 to 200 nM for the first, 1 to 200 nM for the second.

`COc1ccc(S(=O)(=O)CC(C)C)cc1Nc1nccc(Nc2ccc3c(C)n[nH]c3c2)n1` [Example 30, N^2-[5-(isobutylsulfonyl)-2-methoxyphenyl]-N^4-(3-methyl-1H-indazol-6-yl)-2,4-pyrimidinediamine] showed an IC50 of 501 to 1000 nM.
